Measurements published in patent US20100316529A1, “Anti-Microbial Systems and Methods” (priority 2001, published 2010).
Values joined by “and” are separate entries in the source; they are usually repeats but may differ in a detail not shown here. Equal entries are not always repeated.

Legend:
Experiment in all cases: EDTA salt dilution test, MIC/MBC
Format in all cases: cell-based
[1] = tested on: Proteus vulgaris; details: for MBC, minimum concentration required to kill an entire population: Exhibit A1; for MIC, minimum concentration required to inhibit growth: Exhibit A2
[2] = tested on: Coryneform strait/amy; details: for MBC, minimum concentration required to kill an entire population: Exhibit A1; for MIC, minimum concentration required to inhibit growth: Exhibit A2
[3] = tested on: Kleb. pnemoniae; details: two entries; for MBC, minimum concentration required to kill an entire population: Exhibit A1; for MIC, minimum concentration required to inhibit growth: Exhibit A2
Description: (§1) Protocol one: Broth dilutions:
(§2) Inoculate a 25 ml nutrient broth (Oxoid No2) in a sterile universal container with one of the following organisms; Pseudomonas aeruginosa, Proteus Mirabilis, E. coli, Klebsiella pneumoniae, Staph aureus, Coagulase negative staphylococci, Enterococcus faecalis or MRSA.
(§3) Incubate the broth at 37° C. overnight.
(§4) To make these concentrations put the EDTA needed for 10 mLs in only 9 mLs of broth in sterile universal containers, as this will be diluted further when the organisms are added.
(§5) Dilute the overnight broth cultures to 10^7 organisms/mL using more sterile nutrient broth.
(§6) Add 1 mL of this diluent to each of the EDTA series broths. This gives a final concentration of 10^6 organism/mL in the EDTA broths.
(§7) Incubate for 18 hours at 37° C.
(§8) Next day visually read the MIC's by observing the turbidity of the broths.
(§9) Plate out 1 uL of each dilution onto fresh blood agar plate and spread using a sterile plastic spreader.
(§10) Incubate overnight at 37° C.
(§11) Next day read the MBC's by performing colony counts.

[4] = tested on: Proteus mirabilis; details: two entries; for MBC, minimum concentration required to kill an entire population: Exhibit A1; for MIC, minimum concentration required to inhibit growth: Exhibit A2
Description: as §1, §2, §3, §4, §5, §6, §7, §8, §9, §10, §11

[5] = tested on: S. capitis; details: two entries; for MBC, minimum concentration required to kill an entire population: Exhibit A1
Description: as §1, §2, §3, §4, §5, §6, §7, §8, §9, §10, §11

[6] = tested on: S. xylosus; details: for MBC, minimum concentration required to kill an entire population: Exhibit A1; for MIC, minimum concentration required to inhibit growth: Exhibit A2
Description: as §1, §2, §3, §4, §5, §6, §7, §8, §9, §10, §11

[7] = tested on: S. epidermidis; details: two entries; for MBC, minimum concentration required to kill an entire population: Exhibit A1; for MIC, minimum concentration required to inhibit growth: Exhibit A2
Description: as §1, §2, §3, §4, §5, §6, §7, §8, §9, §10, §11

[8] = tested on: Ent. faecalis; details: for MBC, minimum concentration required to kill an entire population: Exhibit A1; for MIC, minimum concentration required to inhibit growth: Exhibit A2
Description: as §1, §2, §3, §4, §5, §6, §7, §8, §9, §10, §11

[9] = tested on: S. aureus; details: five entries; for MBC, minimum concentration required to kill an entire population: Exhibit A1; for MIC, minimum concentration required to inhibit growth: Exhibit A2
Description: as §1, §2, §3, §4, §5, §6, §7, §8, §9, §10, §11

[10] = tested on: S. simulans; details: for MBC, minimum concentration required to kill an entire population: Exhibit A1; for MIC, minimum concentration required to inhibit growth: Exhibit A2
Description: as §1, §2, §3, §4, §5, §6, §7, §8, §9, §10, §11

[11] = tested on: Pseudomonas aeruginosa; details: two entries; for MBC, minimum concentration required to kill an entire population: Exhibit A1; for MIC, minimum concentration required to inhibit growth: Exhibit A2
Description: as §1, §2, §3, §4, §5, §6, §7, §8, §9, §10, §11

[12] = tested on: S. lentus; details: for MBC, minimum concentration required to kill an entire population: Exhibit A1; for MIC, minimum concentration required to inhibit growth: Exhibit A2
Description: as §1, §2, §3, §4, §5, §6, §7, §8, §9, §10, §11

[13] = tested on: E. coli; details: three entries; for MBC, minimum concentration required to kill an entire population: Exhibit A1
Description: as §1, §2, §3, §4, §5, §6, §7, §8, §9, §10, §11

[14] = tested on: MRSA; details: five entries; for MBC, minimum concentration required to kill an entire population: Exhibit A1; for MIC, minimum concentration required to inhibit growth: Exhibit A2
Description: as §1, §2, §3, §4, §5, §6, §7, §8, §9, §10, §11

[15] = tested on: Pseudomonas sp.; details: for MBC, minimum concentration required to kill an entire population: Exhibit A1; for MIC, minimum concentration required to inhibit growth: Exhibit A2
Description: as §1, §2, §3, §4, §5, §6, §7, §8, §9, §10, §11

[16] = tested on: Steno. maltophilia; details: for MBC, minimum concentration required to kill an entire population: Exhibit A1; for MIC, minimum concentration required to inhibit growth: Exhibit A2
[17] = tested on: Kleb. ornitholytica; details: for MBC, minimum concentration required to kill an entire population: Exhibit A1; for MIC, minimum concentration required to inhibit growth: Exhibit A2
[18] = tested on: Ent. faeculm; details: for MIC, minimum concentration required to inhibit growth: Ent. faecuim, Exhibit A2; for MBC, minimum concentration required to kill an entire population: Ent. faeculm, Exhibit A1
[19] = tested on: Kleb. oxytoca; details: for MBC, minimum concentration required to kill an entire population: Exhibit A1; for MIC, minimum concentration required to inhibit growth: Exhibit A2
[20] = tested on: Cornyeform amycolatum; details: for MBC, minimum concentration required to kill an entire population: Exhibit A1
[21] = tested on: VRE; details: two entries
Description: as §1, §2, §3, §4, §5, §6, §7, §8, §9, §10, §11

[22] = tested on: Ent. cloacae; details: three entries

## O=C([O-])CN(CCN(CC(=O)[O-])CC(=O)[O-])CC(=O)[O-].[Cu+2].[Na+].[Na+] [Cupric disodium EDTA]
[1]
  MBC, minimum concentration required to kill an entire population: >30 mg/mL
  MIC, minimum concentration required to inhibit growth: >30 mg/mL
[2]
  MBC, minimum concentration required to kill an entire population: <0.5 mg/mL
  MIC, minimum concentration required to inhibit growth: <0.5 mg/mL
[3]
  MBC, minimum concentration required to kill an entire population: >30 mg/mL
  MIC, minimum concentration required to inhibit growth: >30 mg/mL
[4]
  MBC, minimum concentration required to kill an entire population: >30 mg/mL
  MIC, minimum concentration required to inhibit growth: 6 mg/mL
[5]
  MBC, minimum concentration required to kill an entire population: <0.5 mg/mL
[5]; Exhibit A2
  MIC, minimum concentration required to inhibit growth: <0.5 mg/mL
[6]
  MBC, minimum concentration required to kill an entire population: <0.5 mg/mL
  MIC, minimum concentration required to inhibit growth: <0.5 mg/mL
[7]
  MBC, minimum concentration required to kill an entire population: <0.5 mg/mL
  MIC, minimum concentration required to inhibit growth: <0.5 mg/mL
[8]
  MBC, minimum concentration required to kill an entire population: <0.5 mg/mL
  MIC, minimum concentration required to inhibit growth: <0.5 mg/mL
[9]
  MBC, minimum concentration required to kill an entire population: <0.5 mg/mL
  MIC, minimum concentration required to inhibit growth: <0.5 mg/mL
[10]
  MBC, minimum concentration required to kill an entire population: <0.5 mg/mL
  MIC, minimum concentration required to inhibit growth: <0.5 mg/mL
[11]
  MBC, minimum concentration required to kill an entire population: >30 mg/mL
  MIC, minimum concentration required to inhibit growth: >30 mg/mL
[12]
  MBC, minimum concentration required to kill an entire population: <0.5 mg/mL
  MIC, minimum concentration required to inhibit growth: <0.5 mg/mL
[13]
  MBC, minimum concentration required to kill an entire population: >30 mg/mL
[14]
  MBC, minimum concentration required to kill an entire population: <0.5 mg/mL
  MIC, minimum concentration required to inhibit growth: <0.5 mg/mL
[15]
  MBC, minimum concentration required to kill an entire population: >30 mg/mL
  MIC, minimum concentration required to inhibit growth: >30 mg/mL
[16]
  MBC, minimum concentration required to kill an entire population: >30 mg/mL
  MIC, minimum concentration required to inhibit growth: 6 mg/mL
[17]
  MBC, minimum concentration required to kill an entire population: >30 mg/mL
  MIC, minimum concentration required to inhibit growth: >30 mg/mL
[18]
  MIC, minimum concentration required to inhibit growth: <0.5 mg/mL
  MBC, minimum concentration required to kill an entire population: <0.5 mg/mL
[19]
  MBC, minimum concentration required to kill an entire population: >30 mg/mL
  MIC, minimum concentration required to inhibit growth: >30 mg/mL
[20]
  MBC, minimum concentration required to kill an entire population: <0.5 mg/mL

## O=C([O-])CN(CCN(CC(=O)[O-])CC(=O)[O-])CC(=O)[O-].[Mg+2].[Na+].[Na+] [Magnesium disodium EDTA]
[1]
  MBC, minimum concentration required to kill an entire population: .30 mg/mL
  MIC, minimum concentration required to inhibit growth: >30 mg/mL
[2]
  MBC, minimum concentration required to kill an entire population: 4 mg/mL
  MIC, minimum concentration required to inhibit growth: <0.5 mg/mL
[3]
  MBC, minimum concentration required to kill an entire population: >30 mg/mL
  MIC, minimum concentration required to inhibit growth: >30 mg/mL
[4]
  MBC, minimum concentration required to kill an entire population: >30 mg/mL
  MIC, minimum concentration required to inhibit growth: >30 mg/mL
[5]
  MBC, minimum concentration required to kill an entire population: >30 mg/mL
[6]
  MBC, minimum concentration required to kill an entire population: >30 mg/mL
  MIC, minimum concentration required to inhibit growth: 2 mg/mL
[7]
  MBC, minimum concentration required to kill an entire population: 30 mg/mL
  MIC, minimum concentration required to inhibit growth: 6 mg/mL
[21]; Exhibit A1
  MBC, minimum concentration required to kill an entire population: >30 mg/mL
[21]; Exhibit A2
  MIC, minimum concentration required to inhibit growth: 25 mg/mL and >30 mg/mL
[8]
  MBC, minimum concentration required to kill an entire population: >30 mg/mL
  MIC, minimum concentration required to inhibit growth: >30 mg/mL
[9]
  MBC, minimum concentration required to kill an entire population: >30 mg/mL
  MIC, minimum concentration required to inhibit growth: >30 mg/mL
[10]
  MBC, minimum concentration required to kill an entire population: >30 mg/mL
  MIC, minimum concentration required to inhibit growth: 1.5 mg/mL
[11]
  MBC, minimum concentration required to kill an entire population: >30 mg/mL
  MIC, minimum concentration required to inhibit growth: >30 mg/mL
[12]
  MBC, minimum concentration required to kill an entire population: >30 mg/mL
  MIC, minimum concentration required to inhibit growth: 6 mg/mL
[13]
  MBC, minimum concentration required to kill an entire population: >30 mg/mL
[13]; Exhibit A2
  MIC, minimum concentration required to inhibit growth: >30 mg/mL
[14]
  MBC, minimum concentration required to kill an entire population: >30 mg/mL
  MIC, minimum concentration required to inhibit growth: >30 mg/mL
[15]
  MBC, minimum concentration required to kill an entire population: >30 mg/mL
  MIC, minimum concentration required to inhibit growth: >30 mg/mL
[16]
  MBC, minimum concentration required to kill an entire population: >30 mg/mL
  MIC, minimum concentration required to inhibit growth: >30 mg/mL
[17]
  MBC, minimum concentration required to kill an entire population: >30 mg/mL
  MIC, minimum concentration required to inhibit growth: >30 mg/mL
[18]
  MIC, minimum concentration required to inhibit growth: 1.5 mg/mL
  MBC, minimum concentration required to kill an entire population: >30 mg/mL
[19]
  MBC, minimum concentration required to kill an entire population: >30 mg/mL
  MIC, minimum concentration required to inhibit growth: >30 mg/mL
[20]
  MBC, minimum concentration required to kill an entire population: 4 mg/mL
[20]; Exhibit A2
  MIC, minimum concentration required to inhibit growth: <0.5 mg/mL
[22]; Exhibit A1
  MBC, minimum concentration required to kill an entire population: >30 mg/mL
[22]; Exhibit A2
  MIC, minimum concentration required to inhibit growth: >30 mg/mL
